Assay [1] in a line: Hypotension in the anesthetized dog by the intravenous route. It is filed as in vivo. Here is the method:
In the use of the compounds of the invention to produce hypotensive effects in warm-blooded animals, administration by the injectable route is preferred, preferably the intravenous route.
Thus in the anesthetized dog by the intravenous route the dose to produce hypotension is from about 1 mg/kg. to about 200 mg/kg. and preferably from about 10 mg/kg. to about 100 mg/kg. Using this procedure the following results were obtained.

Assay [2] has as its system bronchoconstricting effects of a standard dose of acetylcholine. Briefly: Bronchodilation by aerosol inhalation in the guinea pig (method of Rosenthale et al.). It is filed as in vivo. Also on record: dose or concentration left out as unconfirmed. From the text: In using the compounds of the invention to produce bronchodilating effects in warm-blooded animals, they may be administered in a variety of dosage forms: oral, injectable, and aerosol inhalation. Aerosol inhalation is a preferred method because of its rapid onset of action, great potency, and specificity of action. The particular dosage to obtain the bronchodilating effect will vary with the particular compound employed, the particular animal involved, and the degree of bronchodilation desired. […] The bronchodilation produced upon aerosol inhalation can be observed by the method of Rosenthale et al., J. Pharmacol. Exp. Ther., 178, 541 (1971). Using this procedure the following result was obtained.

The values below come from patent publication US4001315A, “Prostaglandin derivatives” (American Home Products Corporation, priority 1975, dated 1977).

The compound `CCCCC[C@H](O)/C=C/[C@H]1CC[C@](C)(O)[C@@H]1C/C=C\CCCC(=O)O` [7-(5α-Hydroxy-2β-[(3S)-3-Hydroxy-Trans-1-Octenyl]-5β-Methyl-1α-Cyclopentyl)-Cis-5-Heptenoic Acid] returned a Δb.p. in assay [1] (Dose 100 mg/kg.) of -23 mm. Hg. For `C#CC(O)(/C=C/[C@H]1CCC(O)(C#C)[C@@H]1C/C=C\CCCC(=O)O)CCCCC` (stereo partly drawn) [7-[(5RS)-5-Ethynyl-2β-((3RS)-3-Ethynyl-3-Hydroxy-Trans-1-Octenyl)-5-Hydroxy-1α-Cyclopentyl]-Cis-5-Heptenoic Acid], in assay [2], the “Percent Inhibition of the bronchoconstricting effects of a standard dose of acetylcholine” value worked out at 48%. This compound returned a Δb.p. in assay [1] (Dose 100 mg/kg.) of -26 mm. Hg. Take `CCCCC[C@H](O)/C=C/[C@H]1CC[C@@](C)(O)[C@@H]1C/C=C\CCCC(=O)O` [7-(5β-Hydroxy-2β-[(3S)-3-Hydroxy-Trans-1-Octenyl]-5α-Methyl-1α-Cyclopentyl)-Cis-5-Heptenoic Acid]: the Δb.p. in assay [1] (Dose 100 mg/kg.) is -19 mm. Hg. In assay [1] (Dose 10 mg/kg.), `C#CC1(O)CC[C@H](/C=C/[C@@H](O)CCCCC)[C@H]1C/C=C\CCCC(=O)O` (stereo partly drawn) [7-[(5RS)-5-Ethynyl-5-Hydroxy-2β-((3S)-3-Hydroxy-Trans-1-Octenyl)-1α-Cyclopentyl]-Cis-5-Heptenoic Acid] returned a Δb.p. of -40 mm. Hg.
